Values of other authors, collected in patent US20080221127A1, “PPAR ACTIVE COMPOUNDS” (Plexxikon Inc, priority 2007, published 2008).

What was measured:
PPARδ = target: T1, PPARδ (Homo sapiens, UniProt Q03181)
T1 sequence (Q03181 1-441): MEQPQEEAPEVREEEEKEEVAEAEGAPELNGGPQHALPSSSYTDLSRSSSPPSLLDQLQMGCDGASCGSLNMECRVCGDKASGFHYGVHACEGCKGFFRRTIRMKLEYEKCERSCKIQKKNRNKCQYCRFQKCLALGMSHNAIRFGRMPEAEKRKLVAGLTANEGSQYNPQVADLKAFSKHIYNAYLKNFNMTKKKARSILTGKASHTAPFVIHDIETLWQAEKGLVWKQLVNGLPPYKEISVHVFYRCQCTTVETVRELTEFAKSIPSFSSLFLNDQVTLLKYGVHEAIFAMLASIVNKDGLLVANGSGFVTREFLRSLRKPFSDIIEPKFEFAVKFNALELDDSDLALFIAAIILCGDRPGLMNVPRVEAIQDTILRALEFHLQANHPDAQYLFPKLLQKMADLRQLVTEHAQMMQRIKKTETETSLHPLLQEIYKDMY

murine PPARα = target: T2, murine PPARα (Mus musculus, UniProt P23204)
T2 sequence (P23204 1-468): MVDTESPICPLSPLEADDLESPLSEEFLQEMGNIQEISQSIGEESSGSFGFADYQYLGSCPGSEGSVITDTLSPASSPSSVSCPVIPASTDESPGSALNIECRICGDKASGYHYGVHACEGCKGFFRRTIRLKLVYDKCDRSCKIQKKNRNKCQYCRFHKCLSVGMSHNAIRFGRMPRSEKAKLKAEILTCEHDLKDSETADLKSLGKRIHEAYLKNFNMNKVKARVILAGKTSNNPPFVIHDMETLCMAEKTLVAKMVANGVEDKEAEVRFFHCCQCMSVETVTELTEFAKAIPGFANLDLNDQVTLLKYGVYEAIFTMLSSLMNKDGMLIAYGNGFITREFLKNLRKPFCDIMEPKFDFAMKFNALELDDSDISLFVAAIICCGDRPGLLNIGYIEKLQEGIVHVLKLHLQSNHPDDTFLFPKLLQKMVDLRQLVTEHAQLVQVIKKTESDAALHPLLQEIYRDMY

CCCc1c(OCCCOc2ccc(OCC(=O)O)cc2)ccc(C(C)=O)c1O [L-165041]
agonist selectivity for PPARδ over PPARγ (PPARδ): approximately 30 fold | activity on murine PPARα (murine PPARα): inactive
